Measurements taken from publication PMC6010916, “Safety and pharmacokinetics of veliparib extended‐release in patients with advanced solid tumors: a phase I study” (Cancer Medicine, 2018).

What was measured:
[1] = Safety: treatment-emergent adverse events (NCI CTCAE version 4.0); format: in vivo, human
Experimental: (§1) Adverse event (AE) severity was assessed according to the National Cancer Institute Common Terminology Criteria for Adverse Events (NCI CTCAE) version 4.0. Tumor evaluations were performed at screening, every 8 weeks after the first administration of study drug, and at the final visit using radiographic measurements from computed tomography or magnetic resonance imaging. Objective tumor responses were evaluated using RECIST version 1.1 criteria. Patients who received one or more doses of veliparib were included in the PK and safety analyses, as well as for evaluation of time to disease progression (TTP). Patients with one or more measurable lesion at baseline were included in the analysis of objective responses.

[2] = test system: ovarian and breast carcinoma; test: Objective tumor response (RECIST version 1.1); format: in vivo, human
Experimental: as §1

[3] = cited from earlier work
[4] = All cycles, All patients (N = 71)
[5] = All cycles, Part 1, extension (n = 24)
[6] = Cycle 1, Part 1, extension (n = 24)
[7] = 16 evaluable patients with breast carcinoma (all BRCA mutation carriers)
[8] = 42 evaluable breast and ovarian carcinoma patients with deleterious BRCA mutations
[9] = 44 evaluable patients with ovarian carcinoma
[10] = Deleterious BRCA mutation, Breast (n = 16)
[11] = Deleterious BRCA mutation, Ovarian (n = 26)
[12] = Deleterious BRCA mutation, Overall (N = 42)

## C[C@]1(c2nc3c(C(N)=O)cccc3[nH]2)CCCN1 [veliparib]
[1]; [4]
  Any SAE: 20 (28.2) n (%)
  SAE leading to discontinuation: 8 (11.3) n (%)
  SAE leading to dose interruption: 14 (19.7) n (%)
  SAE leading to dose reduction: 1 (1.4) n (%)
  TEAE: Any AE: 70 (98.6) n (%)
  TEAE: At least possibly related to study drug: 60 (84.5) n (%)
  TEAE: NCI CTCAE grade 3 or 4: 28 (39.4) n (%)
[1]; [5]
  Any SAE: 5 (20.8) n (%)
  SAE leading to discontinuation: 3 (12.5) n (%)
  SAE leading to dose interruption: 4 (16.7) n (%)
  SAE leading to dose reduction: 0 n (%)
  TEAE: Abdominal pain: 3 (12.5) n (%)
  TEAE: Anemia: 3 (12.5) n (%)
  TEAE: Any AE: 23 (95.8) n (%)
  TEAE: At least possibly related to study drug: 17 (70.8) n (%)
  TEAE: Constipation: 5 (20.8) n (%)
  TEAE: Decreased appetite: 1 (4.2) n (%)
  TEAE: Diarrhea: 5 (20.8) n (%)
  TEAE: Fatigue: 7 (29.2) n (%)
  TEAE: NCI CTCAE grade 3 or 4: 7 (29.2) n (%)
  TEAE: Nausea, Grade 1: 11 (45.8) n (%)
  TEAE: Nausea, Grade 2: 3 (12.5) n (%)
  TEAE: Nausea, Grade 3: 0 n (%)
  TEAE: Urinary tract infection: 7 (29.2) n (%)
  TEAE: Vomiting: 11 (45.8) n (%)
  TEAE: Vomiting, Grade 1: 11 (45.8) n (%)
  TEAE: Vomiting, Grade 2: 0 n (%)
  TEAE: Vomiting, Grade 3: 0 n (%)
[1]; All cycles, Part 2 (n = 35)
  Any SAE: 11 (31.4) n (%)
  SAE leading to discontinuation: 4 (11.4) n (%)
  SAE leading to dose interruption: 6 (17.1) n (%)
  SAE leading to dose reduction: 1 (2.9) n (%)
  TEAE: Abdominal pain: 7 (20.0) n (%)
  TEAE: Anemia: 10 (28.6) n (%)
  TEAE: Any AE: 35 (100) n (%)
  TEAE: At least possibly related to study drug: 33 (94.3) n (%)
  TEAE: Constipation: 14 (40.0) n (%)
  TEAE: Decreased appetite: 11 (31.4) n (%)
  TEAE: Diarrhea: 10 (28.6) n (%)
  TEAE: Fatigue: 14 (40.0) n (%)
  TEAE: NCI CTCAE grade 3 or 4: 17 (48.6) n (%)
  TEAE: Nausea: 31 (88.6) n (%)
  TEAE: Nausea, Grade 1: 24 (68.6) n (%)
  TEAE: Nausea, Grade 2: 5 (14.3) n (%)
  TEAE: Nausea, Grade 3: 2 (5.7) n (%)
  TEAE: Urinary tract infection: 5 (14.3) n (%)
  TEAE: Vomiting: 17 (48.6) n (%)
  TEAE: Vomiting, Grade 1: 13 (37.1) n (%)
  TEAE: Vomiting, Grade 2: 3 (8.6) n (%)
  TEAE: Vomiting, Grade 3: 1 (2.9) n (%)
[1]; All cycles, Part 3 (n = 12)
  Any SAE: 4 (33.3) n (%)
  SAE leading to discontinuation: 1 (8.3) n (%)
  SAE leading to dose interruption: 4 (33.3) n (%)
  SAE leading to dose reduction: 0 n (%)
  TEAE: Abdominal pain: 4 (33.3) n (%)
  TEAE: Anemia: 2 (16.7) n (%)
  TEAE: Any AE: 12 (100) n (%)
  TEAE: At least possibly related to study drug: 10 (83.3) n (%)
  TEAE: Constipation: 4 (33.3) n (%)
  TEAE: Decreased appetite: 2 (16.7) n (%)
  TEAE: Diarrhea: 6 (50.0) n (%)
  TEAE: Fatigue: 2 (16.7) n (%)
  TEAE: NCI CTCAE grade 3 or 4: 4 (33.3) n (%)
  TEAE: Nausea: 9 (75.0) n (%)
  TEAE: Nausea, Grade 1: 6 (50.0) n (%)
  TEAE: Nausea, Grade 2: 2 (16.7) n (%)
  TEAE: Nausea, Grade 3: 1 (8.3) n (%)
  TEAE: Urinary tract infection: 3 (25.0) n (%)
  TEAE: Vomiting: 7 (58.3) n (%)
  TEAE: Vomiting, Grade 1: 4 (33.3) n (%)
  TEAE: Vomiting, Grade 2: 2 (16.7) n (%)
  TEAE: Vomiting, Grade 3: 1 (8.3) n (%)
[1]; Cycle 1, All patients (N = 71)
  Any SAE: 10 (14.1) n (%)
  SAE leading to discontinuation: 4 (5.6) n (%)
  SAE leading to dose interruption: 6 (8.5) n (%)
  SAE leading to dose reduction: 1 (1.4) n (%)
  TEAE: Any AE: 67 (94.4) n (%)
  TEAE: At least possibly related to study drug: 50 (70.4) n (%)
  TEAE: NCI CTCAE grade 3 or 4: 13 (18.3) n (%)
[1]; [6]
  Any SAE: 4 (16.7) n (%)
  SAE leading to discontinuation: 3 (12.5) n (%)
  SAE leading to dose interruption: 2 (8.3) n (%)
  SAE leading to dose reduction: 0 n (%)
  TEAE: Any AE: 23 (95.8) n (%)
  TEAE: At least possibly related to study drug: 14 (58.3) n (%)
  TEAE: NCI CTCAE grade 3 or 4: 4 (16.7) n (%)
[1]; Cycle 1, Part 2 (n = 35)
  Any SAE: 5 (14.3) n (%)
  SAE leading to discontinuation: 1 (2.9) n (%)
  SAE leading to dose interruption: 3 (8.6) n (%)
  SAE leading to dose reduction: 1 (2.9) n (%)
  TEAE: Any AE: 34 (97.1) n (%)
  TEAE: At least possibly related to study drug: 29 (82.9) n (%)
  TEAE: NCI CTCAE grade 3 or 4: 8 (22.9) n (%)
[1]; Cycle 1, Part 3 (n = 12)
  Any SAE: 1 (8.3) n (%)
  SAE leading to discontinuation: 0 n (%)
  SAE leading to dose interruption: 1 (8.3) n (%)
  SAE leading to dose reduction: 0 n (%)
  TEAE: Any AE: 10 (83.3) n (%)
  TEAE: At least possibly related to study drug: 7 (58.3) n (%)
  TEAE: NCI CTCAE grade 3 or 4: 1 (8.3) n (%)
[1]; Part 1, PK BA portion (n = 24)
  Any SAE: 2 (8.3) n (%)
  SAE leading to discontinuation: 0 n (%)
  SAE leading to dose interruption: 1 (4.2) n (%)
  SAE leading to dose reduction: 0 n (%)
  TEAE: Any AE: 17 (70.8) n (%)
  TEAE: At least possibly related to study drug: 7 (29.2) n (%)
  TEAE: NCI CTCAE grade 3 or 4: 2 (8.3) n (%)
[1]; Part 1, PK phase (n = 24)
  TEAE: Abdominal pain: 3 (12.5) n (%)
  TEAE: Anemia: 1 (4.2) n (%)
  TEAE: Constipation: 0 n (%)
  TEAE: Decreased appetite: 1 (4.2) n (%)
  TEAE: Diarrhea: 2 (8.3) n (%)
  TEAE: Fatigue: 0 n (%)
  TEAE: Nausea: 4 (16.7) n (%)
  TEAE: Nausea, Grade 1: 4 (16.7) n (%)
  TEAE: Nausea, Grade 2: 0 n (%)
  TEAE: Nausea, Grade 3: 0 n (%)
  TEAE: Urinary tract infection: 0 n (%)
  TEAE: Vomiting: 1 (4.2) n (%)
  TEAE: Vomiting, Grade 1: 1 (4.2) n (%)
  TEAE: Vomiting, Grade 2: 0 n (%)
  TEAE: Vomiting, Grade 3: 0 n (%)
[1]; Part 1 extension/Part 2/Part 3
  grade 3 or 4 treatment-related anemia, patients: 0/3/0
  grade 3 or 4 treatment-related nausea, patients: 0/2/1
  grade 3 or 4 treatment-related thrombocytopenia, patients: 2/3/0
[1]; Total (N = 71)
  TEAE: Abdominal pain: 17 (23.9) n (%)
  TEAE: Constipation: 23 (32.4) n (%)
  TEAE: Decreased appetite: 15 (21.1) n (%)
  TEAE: Diarrhea: 23 (32.4) n (%)
  TEAE: Fatigue: 23 (32.4) n (%)
  TEAE: Nausea: 56 (78.9) n (%)
  TEAE: Nausea, Grade 1: 45 (63.4) n (%)
  TEAE: Nausea, Grade 2: 10 (14.1) n (%)
  TEAE: Nausea, Grade 3: 3 (4.2) n (%)
  TEAE: Urinary tract infection: 15 (21.1) n (%)
  TEAE: Vomiting: 36 (50.7) n (%)
  TEAE: Vomiting, Grade 1: 29 (40.8) n (%)
  TEAE: Vomiting, Grade 2: 5 (7.0) n (%)
  TEAE: Vomiting, Grade 3: 2 (2.8) n (%)
[1]; all cycles, 71 patients
  patients who experienced one or more TEAE: 98.6%
  patients with Grade 3 or 4 TEAEs: 39.4%
[1]; cycle 1, 71 patients
  patients who experienced one or more TEAE: 94.4%
  patients with Grade 3 or 4 TEAEs: 18.3%
[1]; overall
  grade 3 or 4 treatment-related anemia: 4.2%
  grade 3 or 4 treatment-related nausea: 4.2%
  grade 3 or 4 treatment-related thrombocytopenia: 7.0%
[1]; overall, 71 patients
  TEAE constipation, frequency: 32.4%
  TEAE diarrhea, frequency: 32.4%
  TEAE fatigue, frequency: 32.4%
  TEAE nausea, frequency: 78.9%
  TEAE vomiting, frequency: 50.7%
[2]; [7]
  confirmed partial responses: 25.0%
  partial response (confirmed and unconfirmed): 62.5%
[2]; 16 patients with breast carcinoma and deleterious BRCA mutations
  confirmed partial responses: 25.0%
[2]; 26 patients with ovarian carcinoma and deleterious BRCA mutations
  confirmed partial responses: 11.5%
[2]; [8]
  confirmed partial responses: 16.7%
  partial response (confirmed and unconfirmed): 40.5%
[2]; [9]
  confirmed partial responses: 11.4%
  partial response (confirmed and unconfirmed): 27.3%
[2]; 60 evaluable patients
  confirmed overall ORR: 15%
  overall (confirmed and unconfirmed) ORR: 36.7%
[2]; Breast (n = 16)
  CR, confirmed: 0 n (%)
  ORR (CR + PR), confirmed: 4 (25.0)— n/N (%) (95% CI)
  PR, confirmed: 4 (25.0) n (%)
[2]; [10]
  CR, confirmed: 0 n (%)
  ORR (CR + PR), confirmed: 4 (25.0) n/N (%)
  PR, confirmed: 4 (25.0) n (%)
[2]; [11]
  CR, confirmed: 0 n (%)
  ORR (CR + PR), confirmed: 3 (11.5) n/N (%)
  PR, confirmed: 3 (11.5) n (%)
[2]; [12]
  CR, confirmed: 0 n (%)
  PR, confirmed: 7 (16.7) n (%)
[2]; Ovarian (n = 44)
  CR, confirmed: 0 n (%)
  PR, confirmed: 5 (11.4) n (%)
[2]; Ovarian (n = 44), measurable lesion at baseline
  ORR (CR + PR), confirmed: 5 (11.4)— n/N (%) (95% CI)
[2]; Overall (N = 60)
  CR, confirmed: 0 n (%)
  PR, confirmed: 9 (15.0) n (%)
[2]; nine patients with unknown BRCA status and measurable disease, all ovarian carcinoma
  partial response (two confirmed, two unconfirmed): 44.4%
[2]; ovarian carcinoma patients with no BRCA mutation
  objective responses: No confirmed and one unconfirmed objective responses
[3]
  absorption: rapid absorption
  elimination: predominant elimination through urinary excretion of the unchanged drug
  oral bioavailability: high oral bioavailability
